These are literature values, as cited in patent US20090087487A1, “Paliperidone sustained release formulation” (priority 2007, published 2009).

In the case of `Cc1nc2n(c(=O)c1CCN1CCC(c3noc4cc(F)ccc34)CC1)CCCC2O` (stereo not shown) [Paliperidone, 4H-Pyrido[1,2-a]pyrimidin-4-one, 3-[2-[4-(6-fluoro-1,2-benzisoxazol-3-yl)-1-piperidinyl]ethyl]-6,7,8,9-tetrahydro-9-hydroxy-2-methyl], the “solubility in 0.1 N hydrochloric acid” value (0.1 N hydrochloric acid) is listed as “soluble”. For the same molecule, the solubility in methanol entry (methanol) is on record as “soluble”. Further, the “solubility in methylene chloride” value (methylene chloride) is given as “freely soluble”. Besides, where the note is “water”, the solubility in water result is “practically insoluble”.
